Patent publication US20170281651A1, “CONCOMITANT ADMINISTRATION OF GLUCOCORTICOID RECEPTOR MODULATORS AND CYP3A OR STEROIDOGENESIS INHIBITORS” (Corcept Therapeutics, Inc., priority 2017, published 2017)
Read-outs that look alike come from different tables or passages of the source.

Legend:
[1] = Example 1: safety (adverse events, laboratory tests, ECG); format: in vivo, human
Procedure: (§1) In cohort 1, six subjects received ketoconazole 400 mg OD for 14 days.
(§2) In cohort 2, six subjects received ketoconazole 200 mg BID for 14 days. […] All 12 subjects completed the study. Cohort 2 subjects participated in a Screening visit to assess eligibility and a check-in Day (Day −1) during which eligibility was re-confirmed. […] The evening of Day 1, subjects received 200 mg oral ketoconazole. Subjects remained in the clinic on Days 2, 3 and 4 to receive 200 mg BID oral ketoconazole, and for safety evaluation and collection of blood pharmacokinetic (PK) samples. Subjects were discharged from the clinic on Day 4 following evening administration of 200 mg oral ketoconazole, and returned to the clinic the morning and evening of Days 5 through 13 to receive 200 mg BID oral ketoconazole. Morning doses of ketoconazole on Days 0-13 were administered in the fasted state.
(§3) Subjects in both cohorts returned to the study center on Day 15 for safety monitoring, and completion of the Termination Visit procedures, followed by discharge from the study. Safety was assessed by spontaneously reported adverse events, physical examinations, and routine clinical laboratory tests. To the extent possible, any adverse events deemed study drug-related and that were ongoing at the time of discharge from the study were followed-up to resolution or until a determination is made that the unresolved event was stable.

[2] = Example 1: effect of oral ketoconazole (400 mg OD or 200 mg BID) on plasma pharmacokinetics of a 300 mg single dose of mifepristone, fasted; format: in vivo, human; settings: for Cmax / AUC(0-t) / half-life / Tmax: male, human, plasma, oral; for AUC(0-t): read-out: AUCt (AUC0-24 hours, mean); for half-life: read-out: T1/2 (mean) (converted); for Tmax: read-out: Tmax (median)
Excerpt: This study was an open-label study in healthy male subjects.
Healthy male volunteers between the ages of 18 to 45 years of age with a body mass index (BMI) ranging between 19 and 32 kg/m2 and a weight of at least 60 kg (132 lbs) were enrolled. Subjects had no clinically significant abnormal findings on the physical examination, ECG, blood pressure, heart rate, medical history, or clinical laboratory results during screening. The QTc interval at screening was less than 450 msec.
as §1
Subjects remained in the clinic on Days 2 and 3 to receive 400 mg OD oral ketoconazole fasted, and for safety evaluation and collection of blood pharmacokinetic (PK) samples. Subjects were discharged from the clinic on Day 4 following administration of 400 mg OD oral ketoconazole fasted, and returned to the clinic the mornings of Days 5 through 13 to receive 400 mg OD oral ketoconazole fasted.
as §2, §3
Descriptive statistics (count, mean, median, standard deviation, minimum, maximum, and % coefficient of variation) were provided. […] Comparisons with previous study data were made.

[3] = mifepristone 300 mg single dose with ketoconazole for 14 days
[4] = C2/C1 (Keto 200 mg BID vs 400 mg OD)
[5] = MIFE 300 mg single dose fasted + Keto 200 mg BID (Cohort 2)
[6] = MIFE 300 mg single dose fasted + Keto 400 mg OD (Cohort 1)

CC#C[C@]1(O)CC[C@H]2[C@@H]3CCC4=CC(=O)CCC4=C3[C@@H](c3ccc(N(C)C)cc3)C[C@@]21C [mifepristone, 11β-(4-dimethylaminophenyl)-17β-hydroxy-17α-(1-propynyl)-estra-4,9-dien-3-one]
safety and tolerability ([1]; 300 mg single-dose fasted with ketoconazole 400 mg OD or 200 mg BID for 14 days, healthy volunteers): safe and well tolerated | subjects with at least one treatment emergent adverse event (TEAE) ([1]; 12 subjects, mifepristone 300 mg single dose with ketoconazole for 14 days): 25% | changes in ECG parameters ([1]; mifepristone 300 mg single dose with ketoconazole): No clinically significant changes | SAE or AE resulting in discontinuation [1, 3]: No subject experienced a serious adverse effect (SAE), or an adverse event (AE) that resulted in discontinuation | TEAEs considered by the investigator to be related to the drug [1, 3]: No TEAE | Mean Ratio AUCtotal (AUCinf, geometric mean ratio) [2, 4]: 1.05 | Mean Ratio Cmax (geometric mean ratio) [2, 4]: 1.15 | Terminal half-life Cohort 2 versus Cohort 1 ([2]; Keto 200 mg BID vs 400 mg OD): approximately the same | Tmax Cohort 2 versus Cohort 1 ([2]; Keto 200 mg BID vs 400 mg OD): shorter | AUCtot (AUCtotal, mean) [2, 5]: 130925 ng·h/mL | AUCtot (AUCtotal, mean) [2, 6]: 116939 ng·h/mL | Cmax [2, 5]: 4140 ng/mL | AUC(0-t) [2, 5]: 40600 ng·h/mL | half-life [2, 5]: 37.4 h | Tmax [2, 5]: 1 h | Cmax [2, 6]: 3400 ng/mL | AUC(0-t) [2, 6]: 38100 ng·h/mL | half-life [2, 6]: 37.1 h | Tmax [2, 6]: 2 h
